Assay results taken from patent US20180042874A1, “METHOD FOR TREATING OSTEOPOROSIS” (China Medical University, priority 2016, published 2018).

Assay: Body weight in ovariectomized osteoporosis rat model
Assay type: in vivo, Sprague-Dawley (SD) female rats
Method: Inducing osteoporosis animal models and experimental methods: • 1. 6-month old Sprague-Dawley (SD) female rats were purchased; • 2. These rats were divided into 7 groups, of which Group 1 was given pseudo-surgery, Group 2-7 underwent bilateral ovariectomies; • 3. On the 6th day after surgery, 1 mL/kg of vehicle alone was given orally to Group 1, Group 2 daily, Zoledronic Acid and Prolia were administered weekly by injections to Group 3, Group 4, respectively; 1, 3, 10 mg/kg of the compound of formula I was given orally every 3 days to Groups 5-7, respectively; • 4. Body weight and bone density were measured weekly, blood was drawn until the 118th day; • 5. Rats were then sacrificed to obtain kidneys, livers and rat tibia; • 6. Data were consolidated and processed.

Row | Compound | effect on body weight (ovariectomized rats) | effect on body weight (rat, in vivo)
1 | O=P(O)(O)C(O)(Cn1ccnc1)P(=O)(O)O [Zoledronic acid] | decreased the body weight | 
2 | Proliaor: commercially available drug, injected weekly as comparator in ovariectomized rats |  | increased the body weight
